The record followed here is patent publication US8895535B2, “Pyrrolidinones as MetAP-2 inhibitors” (Merck Patent GmbH, priority 2010, dated 2014).

pIC50: −log10 of the molar value. Some results are limits rather than exact numbers.

The test deals with MetAP-2 (Homo sapiens, UniProt P50579). As to the kind of experiment: MetAP-2 activity measurement (coupled enzymatic reactions, substrate Met-Arg-Ser). The format is biochemical. The conditions noted are these: Inhibition of MetAP-2; read-out: IC50 enzyme. Here is the method: MetAP-2 Activity Measurement
MetAP-2, sequence (P50579 whole entry, species assumed): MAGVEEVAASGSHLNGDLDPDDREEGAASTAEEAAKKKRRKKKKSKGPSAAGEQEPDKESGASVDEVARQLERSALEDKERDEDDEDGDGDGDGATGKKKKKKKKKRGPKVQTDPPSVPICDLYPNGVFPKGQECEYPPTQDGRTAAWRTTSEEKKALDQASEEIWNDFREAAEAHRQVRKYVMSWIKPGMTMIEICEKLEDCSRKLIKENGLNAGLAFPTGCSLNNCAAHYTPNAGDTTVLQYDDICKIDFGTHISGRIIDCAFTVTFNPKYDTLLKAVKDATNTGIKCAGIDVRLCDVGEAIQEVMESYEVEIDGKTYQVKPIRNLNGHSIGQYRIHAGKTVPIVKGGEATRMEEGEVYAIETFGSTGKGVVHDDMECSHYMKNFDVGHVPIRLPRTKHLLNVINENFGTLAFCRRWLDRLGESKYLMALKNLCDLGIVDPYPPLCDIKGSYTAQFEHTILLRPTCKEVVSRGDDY
The MetAP-2 activity is determined by coupling enzymatic reactions. The tripeptide Met-Arg-Ser (MAS) is employed as substrate. The methionine liberated is firstly converted into Metox and H2O2 by L-aminooxidase (AAO).
MetAP-2 activity can be recorded continuously as kinetics. The reaction scheme illustrates that one mol of dianisidineox is formed per mol of methionene. The MetAP-2 enzyme activity can therefore be calculated directly as Δ absorption per time unit. […] of the MetAP-2 activity (mol of Met/time unit) is possible with the aid of the dianisidineox extinction coefficient.
The change in extinction per time unit is depicted graphically and a slope calculation is carried out in the visually linear region of the reaction.
In the case of `O=C(NCc1cccc(Br)c1)[C@@]1(O)CCN(c2ccccc2)C1=O` [A1], the pIC50 was 6.00 to 8.00.

`CC(C)(C)c1cnc(CCNC(=O)[C@@]2(O)CCN(c3ccccc3)C2=O)o1` [A2]: the pIC50 is below 5.00. Turning to `CCc1nnn(CCNC(=O)[C@@]2(O)CCN(c3ccccc3)C2=O)n1` [A3], the pIC50 was 5.00 to 6.00. As to `O=C(NCc1cccc(OC(F)F)c1)[C@@]1(O)CCN(c2ccccc2)C1=O` [A6], the pIC50 is 5.00 to 6.00. Under `O=C(NCc1cccc(OC(F)(F)F)c1)[C@@]1(O)CCN(c2ccccc2)C1=O` [A8] stands 5.00 to 6.00.

On to `Cc1nccn1-c1cccc(CNC(=O)[C@@]2(O)CCN(c3ccccc3)C2=O)c1` [A9], for which the pIC50 is 5.00 to 6.00. As for `CC(C)(C)c1nc(CCNC(=O)[C@@]2(O)CCN(c3ccccc3)C2=O)no1` [A10], the pIC50 is below 5.00.

As to `O=C(NCCc1noc(C2CCCC2)n1)[C@@]1(O)CCN(c2ccccc2)C1=O` [A12], the pIC50 was below 5.00. As to `CCc1nnnn1CCNC(=O)[C@@]1(O)CCN(c2ccccc2)C1=O` [A13], the pIC50 is below 5.00. For `Cc1nnc(CCNC(=O)[C@@]2(O)CCN(c3ccccc3)C2=O)s1` [A14], the pIC50 was below 5.00.

Take `O=C(NCCc1nnc(C(F)(F)F)o1)[C@@]1(O)CCN(c2ccccc2)C1=O` [A15]: the pIC50 is below 5.00. As to `Cc1nc(CCNC(=O)[C@@]2(O)CCN(c3ccccc3)C2=O)cs1` [A16], the pIC50 is 5.00 to 6.00. For `O=C(NCCc1nccs1)[C@@]1(O)CCN(c2ccccc2)C1=O` [A17], the pIC50 is 6.00 to 8.00. Consider `Cc1ccn(CCNC(=O)[C@@]2(O)CCN(c3ccccc3)C2=O)n1` [A19], for which the pIC50 is 5.00 to 6.00. In the case of `O=C(NCc1cccc(Cl)c1F)[C@@]1(O)CCN(c2ccccc2)C1=O` [A20], the pIC50 was 6.00 to 8.00. As for `O=C(NCc1c(F)ccc(Cl)c1F)[C@@]1(O)CCN(c2ccccc2)C1=O` [A21], the figure is 6.00 to 8.00; as for `O=C(NCc1cc(Br)ccc1F)[C@@]1(O)CCN(c2ccccc2)C1=O` [A22], 6.00 to 8.00.

For the molecule `O=C(NCc1ccc(F)c(Br)c1)[C@@]1(O)CCN(c2ccccc2)C1=O` [A23], the pIC50 is 6.00 to 8.00. On to `O=C(NCc1cccnc1)[C@@]1(O)CCN(c2ccccc2)C1=O` [A24], for which the pIC50 was 5.00 to 6.00.

With `O=C(NCc1cccc(N2CCCC2)n1)[C@@]1(O)CCN(c2ccccc2)C1=O` [A25], the pIC50 is below 5.00. For the molecule `O=C(NCc1ccccn1)[C@@]1(O)CCN(c2ccccc2)C1=O` [A26], the pIC50 was below 5.00. With `O=C(NCc1cccc(C(F)(F)F)c1)[C@@]1(O)CCN(c2ccccc2)C1=O` [A28], the pIC50 is 6.00 to 8.00. Regarding `O=C(NCc1cccc(Br)c1)[C@@]1(O)CCN(c2ccc(Br)cc2)C1=O` [A29], the pIC50 was 6.00 to 8.00. Consider `O=C(NCCc1cccs1)[C@@]1(O)CCN(c2ccc(Br)cc2)C1=O` [A30], for which the pIC50 was 6.00 to 8.00. Turning to `O=C(NCCc1cccs1)[C@@]1(O)CCN(c2ccc(F)cc2F)C1=O` [A31], the pIC50 is 6.00 to 8.00.

Take `O=C(NCCc1cccs1)[C@@]1(O)CCN(c2ccc(F)cc2)C1=O` [A32]: the pIC50 is 6.00 to 8.00. Regarding `CC(C)(C)c1noc(CCNC(=O)[C@@]2(O)CCN(c3ccccc3)C2=O)n1` [A34], the pIC50 is below 5.00. `CCc1nnc(CCNC(=O)[C@@]2(O)CCN(c3ccccc3)C2=O)s1` [A35]: the pIC50 was below 5.00. For the molecule `O=C(NCc1cccc(-c2nccs2)c1)[C@@]1(O)CCN(c2ccccc2)C1=O` [A36], the pIC50 is 5.00 to 6.00. As to `O=C(NCCc1cccs1)[C@@]1(O)CCN(c2cccc(Cl)c2)C1=O` [A37, (S)-1-(3-chlorophenyl)-3-hydroxy-2-oxopyrrolidine-3-carboxylic acid (2-thiophen-2-ylethyl)amide], the pIC50 was 6.00 to 8.00. Consider `O=C(NCc1cccc(Br)c1)[C@@]1(O)CCN(c2ccc(F)cc2)C1=O` [A38], for which the pIC50 was 6.00 to 8.00.

Take `O=C(NCc1cccc(Br)c1)[C@@]1(Cl)CCN(c2ccccc2)C1=O` [A39]: the pIC50 is below 5.00.

With `O=C(NCCc1cccs1)[C@]1(O)CCN(c2cccc(Cl)c2)C1=O` [A40], the pIC50 is 6.00 to 8.00. Turning to `O=C(NCc1cccc(Br)c1)[C@]1(O)CCN(c2ccc(F)cc2)C1=O` [A41], the pIC50 was 5.00 to 6.00.

For `CCc1nnn(CCNC(=O)[C@]2(O)CCN(c3ccccc3)C2=O)n1` [A42], the pIC50 was below 5.00. Consider `O=C(NCc1cccc(Br)c1)[C@]1(Cl)CCN(c2ccccc2)C1=O` [A43], for which the pIC50 was below 5.00. As to `O=C(NCCn1cccn1)[C@@]1(O)CCN(c2ccccc2)C1=O` [A44], the pIC50 is 5.00 to 6.00. With `O=C(NCCN1CCCC1)[C@@]1(O)CCN(c2ccccc2)C1=O` [A45], the pIC50 is below 5.00. With `O=C(NCc1ccc(F)c(Cl)c1F)[C@@]1(O)CCN(c2ccccc2)C1=O` [A46], the pIC50 is 6.00 to 8.00. For the molecule `O=C(NCc1ccc(F)c(Cl)c1)[C@@]1(O)CCN(c2ccccc2)C1=O` [A47], the pIC50 was 6.00 to 8.00.

Consider `O=C(NCc1cc(Cl)ccc1F)[C@@]1(O)CCN(c2ccccc2)C1=O` [A49], for which the pIC50 is 6.00 to 8.00. On to `O=C(NCc1cccc(Br)c1)[C@@]1(O)CCN(c2ccc(F)c(Cl)c2)C1=O` [A50], for which the pIC50 is 6.00 to 8.00. As for `O=C(NCCc1cccs1)[C@@]1(O)CCN(c2ccc(F)c(Cl)c2)C1=O` [A51], the pIC50 was 6.00 to 8.00. Turning to `O=C(NCc1cccc(Br)c1)[C@@]1(O)CCN(c2ccc(F)cc2F)C1=O` [A52], the pIC50 is 6.00 to 8.00. Turning to `O=C(NCc1cccc(Br)c1)[C@]1(O)CCN(c2cccc3ccccc23)C1=O` [A53], the pIC50 was below 5.00. Take `O=C(NCc1cccc(Br)c1)[C@@]1(O)CCN(c2ccc3ccccc3c2)C1=O` [A54]: the pIC50 was 6.00 to 8.00. For `O=C(NCCc1cccs1)[C@@]1(O)CCN(c2ccc3ccccc3c2)C1=O` [A55], the pIC50 is 6.00 to 8.00. `O=C(NCc1cccc(Cl)c1F)[C@@]1(O)CCN(c2ccc(F)c(Cl)c2)C1=O` [A56]: the pIC50 was 6.00 to 8.00. As for `O=C(NCc1cccc(Cl)c1F)[C@@]1(O)CCN(c2cccc(Cl)c2)C1=O` [A57], the figure is 6.00 to 8.00; as for `O=C(NCc1cccc(Cl)c1F)[C@@]1(O)CCN(c2ccc(F)cc2)C1=O` [A58], 6.00 to 8.00; as for `O=C(NCc1nc2ccccc2s1)[C@@]1(O)CCN(c2ccccc2)C1=O` [A60], below 5.00. Turning to `O=C(NCCc1cccs1)[C@@]1(Cl)CCN(c2ccccc2)C1=O` [A61], the pIC50 was below 5.00. Take `O=C(NCc1ccco1)[C@@]1(O)CCN(c2ccccc2)C1=O` [A62]: the pIC50 is 6.00 to 8.00. As for `CC(C)CCNC(=O)C1(O)CCN(c2ccccc2)C1=O` (stereo not drawn) [A63], the pIC50 was 6.00 to 8.00. As to `O=C(NCc1ccco1)C1(O)CCN(c2ccccc2)C1=O` (stereo not drawn) [A64], the pIC50 is 5.00 to 6.00. As for `O=C(NCc1cccc(Cl)c1F)[C@]1(O)CCN(c2ccc(F)cc2)C1=O` [A67], the figure is 5.00 to 6.00; as for `O=C(NCc1cccc(Cl)c1F)[C@]1(O)CCN(c2cccc(Cl)c2)C1=O` [A68], 5.00 to 6.00. For `O=C(NCCc1cccs1)[C@]1(O)CCN(c2ccc3ccccc3c2)C1=O` [A69], the pIC50 was 6.00 to 8.00. For the molecule `O=C(NCc1cccc(Br)c1)[C@]1(O)CCN(c2ccc3ccccc3c2)C1=O` [A70], the pIC50 was below 5.00. Turning to `O=C(NCc1cccc(Br)c1)[C@@]1(O)CCN(c2cccc3ccccc23)C1=O` [A71], the pIC50 is 6.00 to 8.00. As to `O=C(NCc1cccc(Br)c1)[C@]1(O)CCN(c2ccc(F)cc2F)C1=O` [A72], the pIC50 is below 5.00. For the molecule `O=C(NCc1cccc(Br)c1)[C@]1(O)CCN(c2ccc(F)c(Cl)c2)C1=O` [A73], the pIC50 was 5.00 to 6.00. As for `O=C(NCc1ccc(F)c(Cl)c1)[C@]1(O)CCN(c2ccccc2)C1=O` [A74], the figure is below 5.00.

`O=C(NCc1cccc(Br)c1)[C@]1(O)CCN(c2ccc(Br)cc2)C1=O` [A76]: the pIC50 was below 5.00.

On to `O=C(NCCc1cccs1)[C@]1(O)CCN(c2ccc(Br)cc2)C1=O` [A77], for which the pIC50 was 5.00 to 6.00.

`O=C(NCCc1cccs1)[C@]1(O)CCN(c2ccc(F)cc2)C1=O` [A78]: the pIC50 is 5.00 to 6.00.

Regarding `O=C(NCc1cccc(Br)c1)[C@]1(O)CCN(c2ccccc2)C1=O` [A79], the pIC50 was below 5.00. As to `O=C(NCc1cc(F)cc(C(F)(F)F)c1)[C@@]1(O)CCN(c2ccc(F)cc2)C1=O` [A162], the pIC50 was 6.00 to 8.00.

For `O=C(NCc1cc(C(F)(F)F)cc(C(F)(F)F)c1)[C@@]1(O)CCN(c2ccc(F)cc2)C1=O` [A163], the pIC50 is below 5.00. For the molecule `O=C(NCc1cc(F)cc(C(F)(F)F)c1)[C@@]1(O)CCN(c2ccccc2)C1=O` [A164], the pIC50 is 6.00 to 8.00.

Regarding `O=C(NCc1cc(C(F)(F)F)cc(C(F)(F)F)c1)[C@@]1(O)CCN(c2ccccc2)C1=O` [A165], the pIC50 was below 5.00.

Turning to `Cn1cc(N2CC[C@](O)(C(=O)NCc3cccc(Cl)c3F)C2=O)cn1` [A170], the pIC50 is 6.00 to 8.00.

For the molecule `COCCN1CC[C@](O)(C(=O)NCc2cc(F)cc(F)c2)C1=O` [A171], the pIC50 is 5.00 to 6.00. In the case of `O=C(NCc1cc(F)cc(Cl)c1)[C@@]1(O)CCN(C2CCCCC2)C1=O` [A173], the pIC50 was 6.00 to 8.00.

Turning to `Cc1ccc(N2CC[C@](O)(C(=O)NCc3cc(F)cc(Cl)c3)C2=O)cn1` [A181], the pIC50 was 6.00 to 8.00. Take `CC(C)n1cc(N2CC[C@](O)(C(=O)NCc3cccc(Cl)c3F)C2=O)cn1` [A200]: the pIC50 is 6.00 to 8.00. As for `CCn1cc(N2CC[C@](O)(C(=O)NCc3cc(F)cc(F)c3)C2=O)cn1` [A211], the figure is 6.00 to 8.00. With `N#Cc1cccc(CNC(=O)[C@@]2(O)CCN(c3ccccc3)C2=O)c1` [A215], the pIC50 was 6.00 to 8.00. Regarding `O=C(NCCc1cc(F)cc(Cl)c1)[C@]1(O)CCN(c2cccc(C(F)(F)F)c2)C1=O` [A220], the pIC50 was 5.00 to 6.00. Regarding `O=C(NCCc1cc(F)cc(Cl)c1)[C@@]1(O)CCN(c2ccc(C(F)(F)F)cc2)C1=O` [A233], the pIC50 was 6.00 to 8.00. Turning to `CC(C)n1cc(N2CC[C@](O)(C(=O)NCCc3cc(F)cc(Cl)c3)C2=O)cn1` [A240], the pIC50 is 6.00 to 8.00.

For orientation: pIC50 means the IC50 on a negative log10 scale, so that one unit is a factor of ten.
